Experimental data from patent publication US20230293535A1, “ERBB/BTK INHIBITORS” (Dizal (Jiangsu) Pharmaceutical Co., Ltd., priority 2018, published 2023).
Structures can show the parent of a compound that is named as a salt.

Experiments:
[1] = target: T1, human EGFR exon 20 H773_V774insNPH (Homo sapiens, UniProt P00533, INS773NPH); test: EGFR Exon20 NPH insertion cellular phosphorylation inhibition (MSD pEGFR Y1068/total EGFR); format: cell-based; details: Ba/F3 EGFR NPH ins cells, 4 h compound, p-EGFR(Y1068)/total EGFR;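 further: IL3-independent Ba/F3 cells with constitutively phosphorylated EGFR, compound exposure at 37 °C under 5% CO2, electrochemiluminescent MSD measurement of the p-EGFR to total EGFR ratio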
T1 construct: host or cells: Ba/F3

WT EGFR cell line A-431 = test: Cell proliferation, WT EGFR A431 (CellTiter-Glo, 72 h); format: cell-based; details: Homo sapiens, A-431, 72 h, A431, 72 h proliferation; read-out: EGFR WT A431 GI50;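 further: proliferation from a luminescent ATP viability signal, expressed as 100 × (treated minus time-zero plate) over (DMSO control minus time-zero plate), cells grown with 10% FBS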
Ba/F3 EGFR ASV ins cells = test: Cell proliferation, Ba/F3 EGFR ASV ins (CellTiter-Glo, 72 h); format: cell-based; details: Ba/F3 EGFR, 72 h, Ba/F3 EGFR ASV ins, 72 h proliferation; read-out: EGFR Exon20 ASV insertion GI50;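 further: IL3-independent Ba/F3 cells transduced with EGFR V769_D770insASV, cellular ATP luminescence after compound exposure, growth relative to DMSO control with the day-0 baseline reading subtracted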
WT EGFR = target: T2, WT EGFR (Homo sapiens, UniProt P00533); test: WT EGFR cellular phosphorylation inhibition in A-431 (hEGF stimulated, MSD); format: cell-based; details: A431 cells, 4 h compound, then 100 ng/ml hEGF 10 min;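 further: electrochemiluminescence read-out of EGFR Tyr1068 phosphorylation expressed as ratio to total EGFR, cells kept in medium with 1% FBS, compounds tested as a concentration series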
T2 construct: host or cells: A-431

Ba/F3 EGFR NPH ins cells = test: Cell proliferation, Ba/F3 EGFR NPH ins (CellTiter-Glo, 72 h); format: cell-based; details: Ba/F3 EGFR, 72 h, Ba/F3 EGFR NPH ins, 72 h proliferation; read-out: EGFR Exon20 NPH insertion GI50;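 further: IL3-independent cells carrying constitutively phosphorylated EGFR, compound dilution series, viable cells quantified by ATP luminescence, growth relative to DMSO wells after subtracting pre-dosing (day 0) baseline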
Ri-1 cells = test: BTK (wt) cell proliferation, Ri-1 (CellTiter-Glo, 72 h); format: cell-based; details: Ri-1, 72 h, Ri-1 cells, 72 h, CellTiter-Glo; read-out: BTK WT Ri-1 GI50;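 further: viable cells quantified as cellular ATP luminescence, proliferation normalized to a time-zero plate and the DMSO control, compounds tested across a dilution series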
[2] = target: T3, human EGFR exon 20 V769_D770insASV (Homo sapiens, UniProt P00533, INS769ASV); test: EGFR Exon20 ASV insertion cellular phosphorylation inhibition (MSD pEGFR Y1068/total EGFR); format: cell-based; details: Ba/F3 EGFR ASV ins cells, 4 h compound, p-EGFR(Y1068)/total EGFR;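 further: electrochemiluminescent readout on an MSD SECTOR Imager, IL3-independent transduced cells in medium with 1% FBS, compound concentration series at 37 °C and 5% CO2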
T3 construct: expressed in transfected cells; host or cells: Ba/F3 (DSMZ ACC-300), lentiviral transduction, puromycin selection, IL3 depletion

Phospho-BTK (Tyr223) = target: T4, Phospho-BTK (Tyr223) (Homo sapiens, UniProt Q06187); test: p-BTK assay in Ramos cells (HTRF Phospho-BTK Tyr223); format: cell-based; details: pervanadate stimulated, read-out: p-BTK (Romas) IC50
T4 construct: endogenous in cells; host or cells: Ramos
Procedure: The assay plates were then incubated for 30 minutes at 37° C., 5% CO2. 300 uM Per vanadate (3X) was added to each well and the assay plates were again incubated for 60 minutes at 37° C., 5% CO2. Phospho-BTK (Tyr223) is detected using the HTRF® reagents (Cisbio) according to the manufacturer’s one-plate assay protocol.

DB cells = test: BTK (wt) cell proliferation, DB (CellTiter-Glo, 72 h); format: cell-based; details: Homo sapiens, DB, DB cells, CellTiter-Glo, read-out: Non-BCR activated DB GI50;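 further: DB cells in 384-well plates given a dilution series of compound, viable cells read by ATP luminescence, growth expressed versus DMSO control after subtracting a time-zero plate reading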
[3] = target: T5, human Her2 exon 20 insertion mutation YVMA (Homo sapiens, UniProt P04626, INS775YVMA); test: Her2 Exon 20 YVMA insertion cellular phosphorylation inhibition (MSD p-Her2 Y1248/total Her2); format: cell-based; details: Her2 YVMAins cells, 4 h compound;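 further: lentivirally transduced NIH-3T3 cells in 1% FBS medium, electrochemiluminescent MSD read-out, graded compound concentrations at 37 °C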
T5 construct: expressed in transfected cells; host or cells: NIH-3T3, lentiviral transduction, puromycin selection

EGFR L858R&T790M = target: T6, EGFR L858R&T790M (Homo sapiens, UniProt P00533, L858R/T790M); test: EGFR L858R and T790M cellular phosphorylation inhibition in NCI-H1975 (MSD); format: cell-based; details: NCI-H1975 cells, 4 h compound, p-EGFR(Y1068)/total EGFR; read-out: EGFR L858R and T790M mutation IC50;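 further: phosphorylated and total EGFR detected by electrochemiluminescence, cells exposed to compound in medium containing 1% FBS at 37 °C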
T6 construct: host or cells: NCI-H1975

[4] = test system: NCI-H1975 EGFR L858R/T790M cells; test: Cell proliferation, NCI-H1975 EGFR L858R/T790M (CellTiter-Glo, 72 h); format: cell-based; details: Homo sapiens, NCI-H1975, 72 h, NCI-H1975, 72 h proliferation; read-out: EGFR L858R and T790M mutation GI50;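 further: viable cells quantified by luciferase-based ATP luminescence, proliferation expressed relative to DMSO-treated wells (100%) after subtracting a parallel plate read at the time of dosing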
OCI-LY-10 cells = test: BTK (wt) cell proliferation, OCI-LY-10 (CellTiter-Glo, 72 h); format: cell-based; details: Homo sapiens, OCI-Ly10, 72 h, OCI-LY-10 cells, 72 h, CellTiter-Glo; read-out: BTK WT OCI-LY-10 GI50;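 further: viable cells quantified via cellular ATP luminescence, proliferation given as percent of DMSO control after subtracting a duplicate plate read at time of dosing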
BTK [5] = target: T7, BTK (Homo sapiens, UniProt Q06187); test: BTK target site occupancy ELISA (Ramos); format: cell-based; design: endogenous in cells; host or cells: Ramos; details: BTK receptor occupancy, read-out: Occupancy (Romas) IC50
Procedure: (§1) An enzyme-linked immunosorbent assay (ELISA) method for the detection of free uninhibited Btk in mouse and human lysates. Human or mouse whole blood were incubated with compound for 2 hour at 37° C. Whole blood were lysed in ice-cold lysis buffer containing 50 mM Tris-HCl, pH 7.5, 150 mM NaCl, 1 mM EDTA,1% Triton X-100. […] Samples were transferred to a streptavidin-coated 96-well ELISA plate and mixed while shaking for 1 hour at room temperature. The α-Btk antibody (1:500; clone number D3H5, Cell signaling Technology, Danvers, MA, USA) was then added to the well and incubated for 1 hour at room temperature. After wash, goat α-rabbit-FW (1:5000 dilution in PBS+ 0.05% Tween-20 + 1% BSA) was added to each well and incubated for 1 h at room temperature. The ELISA was developed with addition of tetramethyl benzidine (TMB) followed by Stop Solution and read at OD 450 nm.

TMD-8 cells = test: BTK (wt) cell proliferation, TMD-8 (CellTiter-Glo, 72 h); format: cell-based; details: Homo sapiens, TMD8, 72 h, TMD-8 cells, 72 h, CellTiter-Glo; read-out: BTK WT TMD-8 GI50;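 further: viable cells quantified by ATP-based luminescence, proliferation expressed as percent of DMSO control after subtracting a time-zero baseline plate read at dosing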
Procedure: OCI-LY-10 at 3,750 cells/well, TMD-8 and Ri-1 at 2,000 cells/well, and DB at 1,250 cells/well, respectively, were sorted into 384-well plates in RPMI1640 medium with 10% FBS. After overnight incubation, all cells were incubated with compound at a series of concentrations. Meanwhile, a duplicated plate of each cell line was prepared for measuring G0 value. The dosed plates were further incubated for 72 hours and the number of viable cells was measured by CellTiter-Glo® Luminescent Cell Viability Assay (Promega), a luminescent method for determining the number of viable cells through measurement of cellular ATP concentration using Envision plate reader (PerkinElmer). The percentage of proliferation was calculated as: % Proliferation = 100 × (G3 value of sample well - G0 value)/(G3 value of DMSO control - G0 value).

[6] = test system: Her2 exon 20 insertion YVMA transduced NIH-3T3 cell line; test: Cell proliferation, Her2 YVMAins NIH-3T3 (CellTiter-Glo, 72 h); format: cell-based; details: Mus musculus, NIH3T3, 72 h, Her2 YVMAins cells, 72 h proliferation; read-out: Her2 Exon 20 YVMA insertion GI50;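 further: viable cells quantified by ATP luminescence, growth over a day-zero baseline plate expressed as percent of DMSO control growth, compound dilution series in 10% FBS medium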
BTK [7] = target: T7, BTK; test: BTK target site occupancy ELISA (PBMC); format: cell-based; details: BTK receptor occupancy
Procedure: as §1

[8] = In vitro human hepatocytes clearance assay; details: both, human, cryopreserved human hepatocytes (suspension), human hepatocytes Clint (µL/min/10^6cells), mixed gender human hepatocytes, incubation up to 100 min
Procedure: (§2) The protocol for rat/human hepatocytes metabolic stability assay is employed to determine the clearance of the compounds of the present disclosure in vitro.
(§3) Rat hepatocytes in male gender and human hepatocytes in mixed gender were obtained from commercial vendors (e.g., BioreclamationIVT) and stored at -150° C. prior to use. 10 mM stock solutions of tested compounds were prepared in DMSO. Thawing medium and supplement incubation medium (serum-free) were placed in a 37° C. water bath for at least 15 minutes prior to use. Stock solutions were diluted to 100 µM by combining 198 µL acetonitrile and 2 µL of 10 mM stock solution.
(§4) Vials of cryopreserved hepatocytes were removed from storage, ensured that vials remain at cryogenic temperatures. The vials were thawed in a 37° C. water bath with gently shaking. Vials were kept in water bath until all ice crystals had dissolved and were no longer visible. Vials were sprayed with 70% ethanol before being transferred to a biosafety cabinet. And then the contents were poured into the 50 mL thawing medium conical tube. Vials were centrifuged at 100 g for 10 minutes at room temperature.
(§5) Cell viability and density were counted using a Trypan Blue exclusion, and then cells were diluted with serum-free incubation medium to a working cell density of 1 × 10^6 viable cells/ml. […] The inactivated hepatocytes were used to prepare negative samples, which were used to exclude the misleading factor that resulted from instability of chemical itself.
(§6) Aliquots of 247.5 µL hepatocytes were dispensed into each well of a 96-well non-coated plate. The plate was placed in the incubator on an orbital shaker for approximately 10 minutes. Aliquots of 2.5 µL of the 100 µM test compounds were added into respective wells of the non-coated 96-well plate to start the reaction. This assay was performed in duplicate. The plate was incubated in the incubator on an orbital shaker for the designed time points. […] Samples were centrifuges for 20 minutes at 4000 g and aliquots of 100 µL of the supernatants were used for LC-MS/MS analysis for measurement of test compounds
(§7) In vitro hepatocyte clearance was estimated based on determination of elimination half-life (T½) of compounds disappearance from their initial concentrations. Peak area ratios of each compound (test or control) to IS was calculated. Ln (%Control) versus Incubation Time (min) curve was plotted, and the slope of a linear fitting line was calculated.

[9] = In vitro rat hepatocytes clearance assay; details: male, rat, cryopreserved rat hepatocytes (suspension), rat hepatocytes Clint (µL/min/10^6cells), 1 µM-range incubation up to 100 min
Procedure: as §2, §3, §4, §5, §6, §7

[10] = Rat pharmacokinetic study after oral administration (SOA); format: in vivo; details: male Han Wistar rats; for SOA DN AUCSYS (ng·h/mL)/(mg/kg): dose-normalised systemic AUC; for Cmax: rat, plasma, nominal 10 mg/kg (actual dose in c1)
Procedure: For rat pharmacokinetic studies, six male Han Wistar rats were purchased from Beijing Vital River and orally dosed with the test compound at 10 mg/kg in 0.5% Tween-80 and 0.5% hydroxypropyl methylcellulose (v/w). At, 0.5, 1, 2, 4, 7 and 16 hours post-dose, blood samples (>100 µL/time point) were collected from portal vein and via cardiac puncture into separate K2EDTA […] tubes, and then immediately centrifuged at 1500 g, 5 min at 4° C. to separate plasma. The plasma samples were deproteinized with 4 fold acetonitrile (including internal standard), vortex for 10 min and centrifuges for 10 minutes at 4000 g at 4° C.. The supernatantswere submitted to LC/MS/MS (API 5500, Applied Biosystems, Foster City) analysis. Two sets of standard curves were run at the beginning and end of each batch from plasma sample analysis.
Compound absorption was measured by portal vein AUC (AUCHPV) and systemic AUC (AUCSYS) observed maximum concentration (Cmax) in rats after oral administration. Dose is the actual dose used in SOA study. Find below in Table 9 data for exemplary tested compounds.

T6 sequence (P00533 25-1210 T790M/L858R): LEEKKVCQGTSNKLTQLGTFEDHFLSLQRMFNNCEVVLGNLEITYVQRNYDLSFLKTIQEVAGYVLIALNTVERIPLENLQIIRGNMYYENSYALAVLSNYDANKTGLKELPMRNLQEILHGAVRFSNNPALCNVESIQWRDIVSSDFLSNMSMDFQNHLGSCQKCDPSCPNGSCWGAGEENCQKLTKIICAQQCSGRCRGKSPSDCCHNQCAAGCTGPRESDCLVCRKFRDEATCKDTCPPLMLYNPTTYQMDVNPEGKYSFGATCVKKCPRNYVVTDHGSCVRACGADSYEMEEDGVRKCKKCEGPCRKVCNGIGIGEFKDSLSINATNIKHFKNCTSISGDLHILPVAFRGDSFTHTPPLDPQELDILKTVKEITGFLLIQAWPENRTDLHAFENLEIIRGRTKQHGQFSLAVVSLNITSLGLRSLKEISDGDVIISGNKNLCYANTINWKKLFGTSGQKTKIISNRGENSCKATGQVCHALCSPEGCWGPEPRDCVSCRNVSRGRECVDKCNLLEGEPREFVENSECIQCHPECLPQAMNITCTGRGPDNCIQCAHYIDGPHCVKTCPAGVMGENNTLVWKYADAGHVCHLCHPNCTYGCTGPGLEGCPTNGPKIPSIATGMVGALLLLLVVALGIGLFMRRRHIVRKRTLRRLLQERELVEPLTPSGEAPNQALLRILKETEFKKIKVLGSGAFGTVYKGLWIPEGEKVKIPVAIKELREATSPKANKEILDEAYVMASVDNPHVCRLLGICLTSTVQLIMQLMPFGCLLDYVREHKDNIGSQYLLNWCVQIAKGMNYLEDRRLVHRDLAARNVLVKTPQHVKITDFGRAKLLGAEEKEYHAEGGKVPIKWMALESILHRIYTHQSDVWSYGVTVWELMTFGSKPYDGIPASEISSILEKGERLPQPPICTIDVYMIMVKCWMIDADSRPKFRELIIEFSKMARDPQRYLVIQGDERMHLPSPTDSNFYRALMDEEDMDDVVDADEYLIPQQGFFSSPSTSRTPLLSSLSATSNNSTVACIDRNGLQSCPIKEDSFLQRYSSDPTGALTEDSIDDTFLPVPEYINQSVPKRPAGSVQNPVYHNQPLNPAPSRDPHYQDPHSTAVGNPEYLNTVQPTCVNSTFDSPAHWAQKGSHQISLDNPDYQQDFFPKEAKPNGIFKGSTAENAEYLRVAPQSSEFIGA
T1 sequence (P00533 with tags, fused parts or gaps INS773NPH): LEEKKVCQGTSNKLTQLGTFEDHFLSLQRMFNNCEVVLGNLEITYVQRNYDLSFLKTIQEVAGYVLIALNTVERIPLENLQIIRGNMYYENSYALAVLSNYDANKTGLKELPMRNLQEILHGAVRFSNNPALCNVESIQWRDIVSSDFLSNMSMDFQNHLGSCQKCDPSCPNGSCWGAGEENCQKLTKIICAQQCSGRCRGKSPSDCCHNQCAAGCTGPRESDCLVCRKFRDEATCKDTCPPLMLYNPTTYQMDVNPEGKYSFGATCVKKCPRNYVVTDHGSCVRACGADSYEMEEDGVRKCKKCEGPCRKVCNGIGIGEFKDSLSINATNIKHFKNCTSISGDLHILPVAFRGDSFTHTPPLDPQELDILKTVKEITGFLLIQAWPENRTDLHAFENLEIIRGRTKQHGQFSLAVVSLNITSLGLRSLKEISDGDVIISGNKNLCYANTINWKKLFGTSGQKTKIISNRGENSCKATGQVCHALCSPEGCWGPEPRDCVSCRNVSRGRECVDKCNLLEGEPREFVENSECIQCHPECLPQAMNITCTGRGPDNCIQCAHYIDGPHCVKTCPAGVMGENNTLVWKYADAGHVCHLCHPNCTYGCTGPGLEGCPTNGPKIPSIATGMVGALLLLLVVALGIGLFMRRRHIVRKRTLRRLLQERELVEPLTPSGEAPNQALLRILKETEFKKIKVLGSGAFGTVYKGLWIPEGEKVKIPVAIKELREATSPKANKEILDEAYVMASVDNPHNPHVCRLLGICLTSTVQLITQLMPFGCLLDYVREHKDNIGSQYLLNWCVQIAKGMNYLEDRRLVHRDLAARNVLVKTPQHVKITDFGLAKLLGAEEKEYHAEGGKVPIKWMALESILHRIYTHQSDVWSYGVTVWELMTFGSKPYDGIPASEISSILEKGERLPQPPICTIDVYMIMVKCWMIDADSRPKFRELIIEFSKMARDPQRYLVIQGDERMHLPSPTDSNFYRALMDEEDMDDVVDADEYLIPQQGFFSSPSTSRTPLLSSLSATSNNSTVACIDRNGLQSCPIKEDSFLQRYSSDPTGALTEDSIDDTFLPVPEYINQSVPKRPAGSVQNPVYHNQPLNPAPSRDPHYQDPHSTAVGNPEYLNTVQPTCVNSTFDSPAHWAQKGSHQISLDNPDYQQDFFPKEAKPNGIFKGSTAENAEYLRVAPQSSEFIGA
T7 sequence (Q06187 whole entry): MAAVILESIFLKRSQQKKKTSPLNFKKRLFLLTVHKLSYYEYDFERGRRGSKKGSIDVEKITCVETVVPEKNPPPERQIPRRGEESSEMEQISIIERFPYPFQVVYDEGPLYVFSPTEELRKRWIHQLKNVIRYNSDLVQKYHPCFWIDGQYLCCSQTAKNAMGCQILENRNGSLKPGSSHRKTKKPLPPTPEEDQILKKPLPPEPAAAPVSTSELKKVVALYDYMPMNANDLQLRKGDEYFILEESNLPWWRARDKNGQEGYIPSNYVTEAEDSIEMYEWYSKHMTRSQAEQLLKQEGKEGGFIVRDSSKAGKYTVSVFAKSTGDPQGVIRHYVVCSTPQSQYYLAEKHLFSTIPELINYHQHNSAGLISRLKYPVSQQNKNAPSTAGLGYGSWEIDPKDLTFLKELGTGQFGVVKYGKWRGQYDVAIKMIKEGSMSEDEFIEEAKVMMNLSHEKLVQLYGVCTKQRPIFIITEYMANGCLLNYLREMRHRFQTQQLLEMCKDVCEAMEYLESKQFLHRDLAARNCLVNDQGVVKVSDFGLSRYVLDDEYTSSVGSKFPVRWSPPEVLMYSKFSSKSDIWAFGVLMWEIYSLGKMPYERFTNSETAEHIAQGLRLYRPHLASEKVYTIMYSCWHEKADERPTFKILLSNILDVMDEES
T4 sequence (Q06187 whole entry): as above
T2 sequence (P00533 25-1210): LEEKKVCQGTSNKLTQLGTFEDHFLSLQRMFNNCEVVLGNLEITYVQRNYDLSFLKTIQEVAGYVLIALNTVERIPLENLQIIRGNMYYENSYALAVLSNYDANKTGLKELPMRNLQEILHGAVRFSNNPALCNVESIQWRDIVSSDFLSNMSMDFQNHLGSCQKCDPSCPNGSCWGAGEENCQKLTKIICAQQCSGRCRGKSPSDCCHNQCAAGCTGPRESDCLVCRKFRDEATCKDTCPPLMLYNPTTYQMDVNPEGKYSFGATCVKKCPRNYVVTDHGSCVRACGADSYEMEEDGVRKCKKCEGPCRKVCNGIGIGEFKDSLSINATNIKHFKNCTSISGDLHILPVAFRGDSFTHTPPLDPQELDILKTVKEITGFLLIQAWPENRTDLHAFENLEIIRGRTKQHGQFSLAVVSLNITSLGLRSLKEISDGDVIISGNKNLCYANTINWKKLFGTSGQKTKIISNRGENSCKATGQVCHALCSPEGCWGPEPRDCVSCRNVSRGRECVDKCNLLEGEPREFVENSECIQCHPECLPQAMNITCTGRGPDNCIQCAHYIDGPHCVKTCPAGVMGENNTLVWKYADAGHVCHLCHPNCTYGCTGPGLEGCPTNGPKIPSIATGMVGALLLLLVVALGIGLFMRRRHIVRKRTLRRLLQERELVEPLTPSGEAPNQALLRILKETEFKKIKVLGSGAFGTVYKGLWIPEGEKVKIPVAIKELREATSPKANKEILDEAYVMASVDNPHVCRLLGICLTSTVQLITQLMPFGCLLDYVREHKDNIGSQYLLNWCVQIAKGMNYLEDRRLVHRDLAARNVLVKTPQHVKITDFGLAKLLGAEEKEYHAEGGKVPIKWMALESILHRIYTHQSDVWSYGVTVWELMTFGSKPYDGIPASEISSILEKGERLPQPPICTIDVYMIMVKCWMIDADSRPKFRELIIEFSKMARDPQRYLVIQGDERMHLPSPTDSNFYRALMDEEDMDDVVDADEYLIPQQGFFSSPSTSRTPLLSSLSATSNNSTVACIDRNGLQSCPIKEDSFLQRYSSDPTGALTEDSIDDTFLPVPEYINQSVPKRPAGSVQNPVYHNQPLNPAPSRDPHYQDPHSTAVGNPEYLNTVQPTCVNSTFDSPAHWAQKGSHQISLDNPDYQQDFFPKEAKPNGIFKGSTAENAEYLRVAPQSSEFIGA

Structure (SMILES)	IC50 [1] [nM]	GI50 (WT EGFR cell line A-431) [nM]	GI50 (Ba/F3 EGFR ASV ins cells) [nM]	IC50 (WT EGFR) [nM]	GI50 (Ba/F3 EGFR NPH ins cells) [nM]	IC50 [2] [nM]	IC50 (Phospho-BTK (Tyr223)) [nM]	IC50 [3] [nM]	IC50 (EGFR L858R&T790M) [nM]	GI50 [4] [nM]	GI50 (OCI-LY-10 cells) [nM]	IC50 (BTK [5]) [nM]	IC50 (BTK [7]) [nM]	hepatocyte CLint at 1 µM [8] [µL/min/1e6 cells]	hepatocyte CLint at 1 µM [9] [µL/min/1e6 cells]	SOA DN AUCSYS (ng·h/mL)/(mg/kg) [10]	GI50 (Ri-1 cells) [nM]	GI50 (DB cells) [nM]	GI50 (TMD-8 cells) [nM]	GI50 [6] [nM]	other results
C=CC(=O)Nc1cc(Nc2ncnc(Nc3cc(F)c(F)cc3C(C)(C)O)n2)c(OC)cc1N1CC(CN(C)C)C1 [Compound 23, N-(5-(4-(4,5-difluoro-2-(2-hydroxypropan-2-yl)phenylamino)-1,3,5-triazin-2-ylamino)-2-(3-((dimethylamino)methyl)azetidin-1-yl)-4-methoxyphenyl)acr ylamide]	321	76.8	159	101	224	87.6	1.6	52.7	1.3	34.7	1.49	1.1	1.1				3.71	> 3000	3.93	271	
C=CC(=O)Nc1cc(Nc2ncnc(Nc3cc(Cl)c(F)cc3C(C)(C)O)n2)c(OC)cc1N1CC(CN(C)C)C1 [Compound 39, N-(5-(4-(5-chloro-4-fluoro-2-(2-hydroxypropan-2-yl)phenylamino)-1,3,5-triazin-2-ylamino)-2-(3-((dimethylamino)methyl)azetidin-1-yl)-4-methoxyphenyl)acrylamide]	45.6	26.5	76.6	30.1	71.8	29.9	0.9	13.2	1.8	5.5	1.74	1	1.3				1.47	> 3000	1.69	69.9	
C=CC(=O)Nc1cc(Nc2nccc(Nc3cc(Cl)c(F)cc3C(C)(C)O)n2)c(OC)cc1N1CC[C@@H](NC)C1 [Compound 80, (R)-N-(5-(4-(5-chloro-4-fluoro-2-(2-hydroxypropan-2-yl)phenylamino)pyrimidin-2-ylamino)-4-methoxy-2-(3-(methylamino)pyrrolidin-1-yl)phenyl)acr ylamide TFA salt]	95	81.5	177	350	220	36.8	5.8	51.8	4.5	14.8	23.7	3.4	5.7	2.81	15.5		> 3000	> 3000	40.2	467	
C=CC(=O)Nc1cc(Nc2ncnc(Nc3cc(Cl)c(F)cc3C(C)(C)O)n2)c(OC)cc1N1C[C@@H](F)[C@@H](N(C)C)C1 [Compound 93, N-(5-(4-(5-chloro-4-fluoro-2-(2-hydroxypropan-2-yl)phenylamino)-1,3,5-triazin-2-ylamino)-2-((3 S,4R)-3-(dimethylamino)-4-fluoropyrrolidin-1-yl)-4-methoxyphenyl) acrylamide]	33.1	21.5	83.2	51.6	105	19.4		15.1	1.6	7.3	0.92			5.01	11.5	249 (ng·h/mL)/(mg/kg)	3.2	> 3000	3.1	166	Cmax [10]: 498 ng/mL

Stronger by IC50 [1], values ahead:

IC50 [1] [nM]	GI50 (WT EGFR cell line A-431) [nM]	GI50 (Ba/F3 EGFR ASV ins cells) [nM]	IC50 (WT EGFR) [nM]	GI50 (Ba/F3 EGFR NPH ins cells) [nM]	IC50 [2] [nM]	IC50 (Phospho-BTK (Tyr223)) [nM]	IC50 [3] [nM]	IC50 (EGFR L858R&T790M) [nM]	GI50 [4] [nM]	GI50 (OCI-LY-10 cells) [nM]	IC50 (BTK [5]) [nM]	IC50 (BTK [7]) [nM]	hepatocyte CLint at 1 µM [8] [µL/min/1e6 cells]	hepatocyte CLint at 1 µM [9] [µL/min/1e6 cells]	SOA DN AUCSYS (ng·h/mL)/(mg/kg) [10]	Structure (SMILES)	GI50 (Ri-1 cells) [nM]	GI50 (DB cells) [nM]	GI50 (TMD-8 cells) [nM]	GI50 [6] [nM]	other results
19.6	19.7	46.2	18.9	59.4	8	1.3	9.3	0.9	3.9	0.7	0.8	1.7				C=CC(=O)Nc1cc(Nc2ncnc(Nc3cc(Cl)c(F)cc3C(C)(C)O)n2)c(OC)cc1N1CC[C@@H]1CN(C)C [Compound 38, (R)-N-(5-(4-(5-chloro-4-fluoro-2-(2-hydroxypropan-2-yl)phenylamino)-1,3,5-triazin-2-ylamino)-2-(2-((dimethylamino)methyl)azetidin-1-yl)-4-methoxyphenyl)acrylamide]	1.49	> 3000	1.62	84.8	
29.5	124	176	356	167	43.2		18.8	1.3	13	8.1			7.36	24.1	50.1 (ng·h/mL)/(mg/kg)	C=CC(=O)Nc1cc(Nc2nccc(Nc3cc(Cl)c(F)cc3C(C)(C)O)n2)c(OC)cc1N1C[C@@H](F)[C@@H](N(C)C)C1 [Compound 79, N-(5-(4-(5-chloro-4-fluoro-2-(2-hydroxypropan-2-yl)phenylamino)pyrimidin-2-ylamino)-2-((3 S,4R)-3-(dimethylamino)-4-fluoropyrrolidin-1-yl)-4-methoxyphenyl)acrylamide]	80.9	> 3000	14.4	233	Cmax [10]: 52.5 ng/mL
21.5	45.8	90.9	195	59.8	17.9		9.3	0.6	29.1	7.8			4.32	16.2	77.8 (ng·h/mL)/(mg/kg)	C=CC(=O)Nc1cc(Nc2nccc(Nc3cc(Cl)c(F)cc3C(C)(C)O)n2)c(OC)cc1N1CC[C@@H](CN(C)C)C1 [Compound 86, (S)-N-(5-(4-(5-chloro-4-fluoro-2-(2-hydroxypropan-2-yl)phenylamino)pyrimidin-2-ylamino)-2-(3-((dimethylamino)methyl)pyrrolidin-1-yl)-4-methoxyphenyl)acrylamide]	18.6	> 3000	11.4	249	Cmax [10]: 76.5 ng/mL
